Measurements from US20040039014A1, “Methods and compounds for treating depression and other disorders” (NPS Pharmaceuticals, Inc., priority 1998, published 2004).
pIC50, pKi: −log10 of the molar value. Where a name gives a salt, the structure may show the parent alone. Read-outs that look alike come from different tables or passages of the source. Each block holds one compound with its values, some of them ahead of it.

Legend:
[1] = molecular target: T1, NMDA receptor; test: [3H]MK-801 binding assay (rat cortex synaptic plasma membranes); conditions: read-out: [3H]MK-801 data IC50, Table I
T1 construct: rat cortex membranes
Procedure: Synaptic plasma membranes (SPMs) from rat cortex were prepared as follows. Isolated cerebral cortices from male and female rats were purchased from Pel-Freez (Rogers, Ariz.) in bulk, and stored at −80° C. The cortices from 25 rats were thawed and pooled. […] The resulting homogenates were centrifuged for 10 min at 1,000×g in a T865 rotor, UltraPro80 Sorvall Centrifuge. The supernatant was removed and subsequently centrifuged at 30,000×g for 30 min. […] Membranes were washed by re-suspension in 500 ml of 5 mM K-EDTA (pH 7.0), incubated at 32° C. for 30 min with stirring, and centrifuged at 100,000×g for 30 min. The final pellet was resuspended in 60 ml of […] K-EDTA (pH 7.0) and stored in aliquots at −80° C. The extensive washing procedure utilized in this assay was designed to minimize the concentrations of glutamate and glycine (co-agonists at the NMDA receptor-ionophore complex) present in the membrane preparation.
On the day of assay, aliquots of SPM were thawed and resuspended in 75 vols of 5 mM K-EDTA, pH 7.0. SPM were centrifuged at 100,000×g for 30 min at 4° C.
The SPM pellet was resuspended in assay buffer (30 mM EPPS, 1 mM K-EDTA, pH 7.0) by polytron. […] Binding was started by the addition of the tissue homogenate. The assay was terminated by the addition of 4 ml ice-cold buffer, followed by filtration over glass-fiber filters (Schleicher & Schuell No. 30) on a Millipore 12-well filtration manifold. Filters were washed with another 3 ×4 ml ice-cold buffer (pH 7.0). Radioactivity on the filters was measured using Fisherbrand Scinti-Safe scintillation cocktail. Samples were shaken for 45-60 min on a shaker platform to solubilize the radioactivity. Counting for ^3H was performed in a Beckman 6000IC LS Scintillation Counter for 4 min per sample.

[2] = molecular target: T2, serotonin transporter site (Rattus norvegicus, UniProt P31652); test: Serotonin reuptake inhibition assay ([3H]citalopram binding, rat forebrain membranes); conditions: Table I; for inhibition at 0.1 µM: @ 100 nM (top number); for inhibition at 0.1 µM / inhibition at 10 µM: read-out: 5-HT Uptake mean % inhibition; for inhibition at 10 µM: @ 10.0 μM (bottom number); for pKi: read-out: 5-HT Uptake Ki
T2 construct: tissue NovaScreen (performed the assay); host or cells: rat forebrain membranes
Procedure: (§1) Monoamine Transporter Minding Assays
(§2) Monoamine transporter binding assays (reuptake inhibition assays) were performed by NovaScreen using standard radioligand binding assays. The transporter binding assays are described briefly below:
Serotonin Reuptake Inhibition Assay
Rat forebrain membranes were incubated with 0.7 nM [^3H] citalopram, N-methyl, (70-87 Ci/mmol)in 50 mM Tris-HCl (pH 7.4), 120 mM NaCl, and 5 mM KCl at 25° C. for 60 minutes. […] Reactions were terminated by rapid vacuum filtration onto glass fiber filters.

[3] = molecular target: T3, norepinephrine transporter site (Rattus norvegicus, UniProt Q63380); test: Norepinephrine reuptake inhibition assay ([3H]nisoxetine binding, rat forebrain membranes); conditions: for inhibition at 0.1 µM / inhibition at 10 µM: read-out: NE Uptake mean % inhibition; for pKi: read-out: NE Uptake Ki
T3 construct: tissue NovaScreen (performed the assay); host or cells: rat forebrain membranes
Procedure: as §1, §2
Norepinephrine Reuptake Inhibition Assay
Reactions were terminated by rapid vacuum filtration onto glass fiber filters.

[4] = molecular target: T4, dopamine transporter site (Cavia porcellus, UniProt H0WCX4); test: Dopamine reuptake inhibition assay ([3H]WIN 35428 binding, guinea pig striatal membranes); conditions: for inhibition at 0.1 µM / inhibition at 10 µM: read-out: DA Uptake mean % inhibition; for pKi: read-out: DA Uptake Ki
T4 construct: tissue NovaScreen (performed the assay); host or cells: guinea pig striatal membranes
Procedure: as §1, §2
Dopamine Reuptake Inhibition Assay:
Reactions were terminated by rapid vacuum filtration onto glass fiber filters. Bound radioactivity was determined using liquid scintillation spectrometry and experimental values were compared to control values to determine binding to the dopamine transporter site based on Madras, et al., Molec.

[5] = @ 10.0 μM (bottom number), Table I

T4 sequence (H0WCX4 1-619): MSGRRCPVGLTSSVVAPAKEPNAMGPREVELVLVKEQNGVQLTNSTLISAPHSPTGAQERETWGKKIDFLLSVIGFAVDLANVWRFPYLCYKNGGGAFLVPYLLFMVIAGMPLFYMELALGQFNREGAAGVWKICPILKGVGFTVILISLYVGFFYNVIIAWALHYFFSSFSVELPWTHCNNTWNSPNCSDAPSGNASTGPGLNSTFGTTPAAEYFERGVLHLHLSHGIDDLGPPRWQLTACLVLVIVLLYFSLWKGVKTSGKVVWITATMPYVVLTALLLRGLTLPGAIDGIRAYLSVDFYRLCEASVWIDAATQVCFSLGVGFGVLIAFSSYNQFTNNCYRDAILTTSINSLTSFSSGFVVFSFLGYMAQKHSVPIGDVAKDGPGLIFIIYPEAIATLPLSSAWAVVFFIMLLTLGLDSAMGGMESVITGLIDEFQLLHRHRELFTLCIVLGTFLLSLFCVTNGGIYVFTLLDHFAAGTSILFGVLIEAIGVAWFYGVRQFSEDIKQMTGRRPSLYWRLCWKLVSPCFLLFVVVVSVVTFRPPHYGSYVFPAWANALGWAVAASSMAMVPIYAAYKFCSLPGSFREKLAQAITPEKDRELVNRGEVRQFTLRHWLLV
T3 sequence (Q63380 1-617): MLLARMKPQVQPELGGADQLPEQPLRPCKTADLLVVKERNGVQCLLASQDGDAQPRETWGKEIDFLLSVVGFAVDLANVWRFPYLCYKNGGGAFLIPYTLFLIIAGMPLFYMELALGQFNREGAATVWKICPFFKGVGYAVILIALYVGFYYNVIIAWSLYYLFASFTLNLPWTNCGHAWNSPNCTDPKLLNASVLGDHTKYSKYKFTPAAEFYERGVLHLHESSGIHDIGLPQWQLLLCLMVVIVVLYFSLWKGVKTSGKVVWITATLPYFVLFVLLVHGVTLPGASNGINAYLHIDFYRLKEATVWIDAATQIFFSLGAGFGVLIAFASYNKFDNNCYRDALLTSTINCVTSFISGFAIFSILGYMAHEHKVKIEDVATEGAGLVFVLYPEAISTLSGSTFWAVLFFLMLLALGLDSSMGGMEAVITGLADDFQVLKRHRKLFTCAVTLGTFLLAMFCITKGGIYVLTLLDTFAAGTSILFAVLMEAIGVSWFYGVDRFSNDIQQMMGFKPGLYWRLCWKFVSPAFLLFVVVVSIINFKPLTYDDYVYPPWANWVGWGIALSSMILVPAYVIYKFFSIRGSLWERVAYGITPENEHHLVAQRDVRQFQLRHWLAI
T2 sequence (P31652 whole entry): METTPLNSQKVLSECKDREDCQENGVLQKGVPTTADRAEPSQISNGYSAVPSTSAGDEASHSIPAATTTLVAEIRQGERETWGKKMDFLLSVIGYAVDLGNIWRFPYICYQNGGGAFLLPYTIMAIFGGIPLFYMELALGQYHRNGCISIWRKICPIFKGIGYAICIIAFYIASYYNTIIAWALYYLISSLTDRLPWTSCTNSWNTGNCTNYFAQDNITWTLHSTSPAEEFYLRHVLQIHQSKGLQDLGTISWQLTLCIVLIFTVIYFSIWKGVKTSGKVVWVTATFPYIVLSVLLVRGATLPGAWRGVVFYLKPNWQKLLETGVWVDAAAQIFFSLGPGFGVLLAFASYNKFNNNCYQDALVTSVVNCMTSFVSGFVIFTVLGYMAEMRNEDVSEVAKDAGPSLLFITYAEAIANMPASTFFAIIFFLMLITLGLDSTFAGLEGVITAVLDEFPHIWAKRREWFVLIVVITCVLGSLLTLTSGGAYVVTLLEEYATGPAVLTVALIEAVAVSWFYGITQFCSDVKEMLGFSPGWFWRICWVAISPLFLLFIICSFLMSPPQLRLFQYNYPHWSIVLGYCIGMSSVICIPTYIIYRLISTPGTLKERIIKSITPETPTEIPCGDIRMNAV

SMILES: CC(CN)C(c1cccc(Cl)c1)c1cccc(Cl)c1 (centres unmarked) [Compound 46]
- pIC50 [1]: 5.28
- inhibition at 0.1 µM [2]: 10.4%
- inhibition at 10 µM [2]: 75.4%
- inhibition at 0.1 µM [3]: 7.4%
- inhibition at 10 µM [3]: 64%
- inhibition at 0.1 µM [4]: 40.2%
- inhibition at 10 µM [4]: 97.1%

- pIC50 [1]: 6.69
- inhibition at 0.1 µM [2]: 27.2%
- inhibition at 10 µM [2]: 95.2%
- inhibition at 0.1 µM ([3]; @ 100 nM (top number), Table I): 1.3%
- inhibition at 10 µM [3, 5]: 66.6%
- inhibition at 0.1 µM ([4]; @ 100 nM (top number), Table I): 0%
- inhibition at 10 µM [4, 5]: 45.2%
SMILES: Cc1ccc(F)cc1C(CCN)c1cc(F)ccc1C [Compound 58]

- pIC50 [1]: 6.34
- inhibition at 0.1 µM [2]: 14.3%
- inhibition at 10 µM [2]: 85.7%
- inhibition at 0.1 µM ([3]; @ 100 nM (top number), Table I): 7.4%
- inhibition at 10 µM [3, 5]: 50.6%
- inhibition at 0.1 µM ([4]; @ 100 nM (top number), Table I): 1.6%
- inhibition at 10 µM [4, 5]: 77.6%
SMILES: CCNCCC(c1cccc(F)c1)c1cccc(F)c1 [Compound 59]

- pIC50 [1]: 6.61
- inhibition at 0.1 µM [2]: 13.4%
- inhibition at 10 µM [2]: 84.6%
- inhibition at 0.1 µM ([3]; @ 100 nM (top number), Table I): 6.8%
- inhibition at 10 µM [3, 5]: 76.2%
- inhibition at 0.1 µM ([4]; @ 100 nM (top number), Table I): 64.3%
- inhibition at 10 µM [4, 5]: 97.8%
SMILES: N[C@H]1CCCC1C(c1cccc(F)c1)c1cccc(F)c1 (some centres unmarked) [Compound 63]

- pIC50 [1]: 6.07
- pKi [2]: 6.60
- pKi ([3]; Table I): 6.29
- pKi ([4]; Table I): 6.92
SMILES: N[C@@H]1CCCC1C(c1cccc(F)c1)c1cccc(F)c1 (some centres unmarked) [Compound 64]

SMILES: Cc1ccccc1C(CCN)c1ccccc1C [Compound 65]
- pIC50 [1]: 5.70
- pKi [2]: 6.90
- pKi ([4]; Table I): 4.66

- pIC50 [1]: 5.92
- inhibition at 0.1 µM [2]: 6.1%
- inhibition at 10 µM [2]: 67.5%
- inhibition at 0.1 µM ([3]; @ 100 nM (top number), Table I): 4.2%
- inhibition at 10 µM [3, 5]: 36.5%
- inhibition at 0.1 µM ([4]; @ 100 nM (top number), Table I): 4.4%
- inhibition at 10 µM [4, 5]: 92.8%
SMILES: CNC[C@H](C)C(c1cccc(F)c1)c1cccc(F)c1 [Compound 66]

- pIC50 [1]: 6.44
SMILES: CN[C@@H](C)CC(c1cccc(F)c1)c1cccc(F)c1 [Compound 69]

- pIC50 [1]: 6.03
SMILES: CNCCC(c1ccccc1)c1cccc(F)c1 (centres unmarked) [Compound 108]

SMILES: NCCC(Oc1ccccc1)c1cccc(F)c1 (centres unmarked) [Compound 118]
- pIC50 [1]: 6.62
- pKi [2]: 6.88
- pKi ([4]; Table I): 5.39

SMILES: NCCC(Oc1cccc(F)c1)c1cccc(F)c1 (centres unmarked) [Compound 119, 3-(3-Fluorophenoxy)-3-(3-fluorophenyl)-1-propylamine]
- inhibition at 0.1 µM [2]: 0.6%
- inhibition at 10 µM [2]: 3.1%

- pIC50 [1]: 7.13
SMILES: NCCC(Oc1cccc(Cl)c1)c1cccc(F)c1 (centres unmarked) [Compound 120]

- pIC50 [1]: 6.17
- inhibition at 0.1 µM [2]: 8.5%
- inhibition at 10 µM [2]: 84.3%
- inhibition at 0.1 µM ([3]; @ 100 nM (top number), Table I): 33.6%
- inhibition at 10 µM [3, 5]: 94.9%
- inhibition at 0.1 µM ([4]; @ 100 nM (top number), Table I): 1.8%
- inhibition at 10 µM [4, 5]: 91.3%
SMILES: COc1ccccc1OC(CCN)c1cccc(F)c1 (centres unmarked) [Compound 121]

- pIC50 [1]: 6.47
- pKi [2]: 7.21
- pKi ([3]; Table I): 6.99
- pKi ([4]; Table I): 5.55
SMILES: NCCC(Oc1ccccc1F)c1cccc(F)c1 (centres unmarked) [Compound 122]

- pIC50 [1]: 5.81
SMILES: CNCCC(c1cccc(F)c1)c1cccc(OC)c1 (centres unmarked) [Compound 142]

- pIC50 [1]: 6.20
- inhibition at 0.1 µM [2]: 3.5%
- inhibition at 10 µM [2]: 81.1%
- inhibition at 0.1 µM ([3]; @ 100 nM (top number), Table I): 16.6%
- inhibition at 10 µM [3, 5]: 99.4%
- inhibition at 0.1 µM ([4]; @ 100 nM (top number), Table I): 0%
- inhibition at 10 µM [4, 5]: 87.4%
SMILES: CNCCC(Oc1cccc(F)c1)c1cccc(F)c1 (centres unmarked) [Compound 145]

- pIC50 [1]: 6.43
SMILES: NCCC(Oc1ccccc1)c1cccc(Cl)c1 (centres unmarked) [Compound 148]

- pIC50 [1]: 6.82
SMILES: NCCC(Oc1cccc(Cl)c1)c1cccc(Cl)c1 (centres unmarked) [Compound 149]

- pIC50 [1]: 6.45
SMILES: NCCC(Oc1cccc(F)c1)c1cccc(Cl)c1 (centres unmarked) [Compound 150]

SMILES: NCCC1c2ccccc2CCc2ccccc21 [Compound 156, 5-(2-Aminoethyl)-5H-10,11-dihydrodibenzo [a, d] cycloheptene hydrochloride]
- pIC50 [1]: 7.05
- pKi [2]: 5.92
- pKi ([3]; Table I): 6.24
- pKi ([4]; Table I): < 5.00

SMILES: Cc1ccccc1OC(CCN)c1ccccc1 (centres unmarked) [Compound 177]
- pIC50 [1]: 6.12
- pKi [3]: 6.96
- pKi ([4]; Table I): < 5.00

- pIC50 [1]: 5.90
SMILES: COc1ccccc1OC(CCN)c1ccccc1 (centres unmarked) [Compound 178]

- pIC50 [1]: 6.20
- inhibition at 0.1 µM [2]: 37.4%
- inhibition at 10 µM [2]: 74.2%
- inhibition at 0.1 µM ([3]; @ 100 nM (top number), Table I): 10.7%
- inhibition at 10 µM [3, 5]: 32%
- inhibition at 0.1 µM ([4]; @ 100 nM (top number), Table I): 0%
- inhibition at 10 µM [4, 5]: 109%
SMILES: Cc1ccccc1OC(CCN)c1cccc(F)c1 (centres unmarked) [Compound 181]

- pIC50 [1]: 5.15
SMILES: NCCC1c2ccccc2Oc2ccccc21 [Compound 182]

- pIC50 [1]: 5.30
SMILES: NCCC1c2ccccc2Sc2ccccc21 [Compound 183]

- pIC50 [1]: 5.82
SMILES: NCCC1c2ccccc2C=Cc2ccccc21 [Compound 184]

SMILES: NCC[C@@H](Oc1cccc(F)c1)c1ccccc1 [Compound 185, (R)-3-(3-Fluorophenoxy)-3-phenylpropylamine]
- pKi [2]: 5.62
- pKi ([4]; Table I): 5.96

SMILES: NCC[C@H](Oc1cccc(F)c1)c1ccccc1 [Compound 186]
- pKi ([4]; Table I): 5.51

- pIC50 [1]: 5.70
SMILES: NCCC1c2ccccc2COc2ccccc21 (centres unmarked) [Compound 187]

SMILES: NCC[C@@H](Oc1cccc(F)c1)c1cccc(F)c1 [Compound 191]
- pIC50 [1]: 5.89
- pKi [2]: 6.87
- pKi ([3]; Table I): 6.20
- pKi ([4]; Table I): 5.81

SMILES: NCC[C@H](Oc1cccc(F)c1)c1cccc(F)c1 [Compound 192]
- pKi [2]: 7.85
- pKi ([3]; Table I): 6.49
- pKi ([4]; Table I): 5.89

- pIC50 [1]: < 6.00
SMILES: NCCC1c2cccc(F)c2CCc2c(F)cccc21 [Compound 193]

- pIC50 [1]: 6.43
SMILES: NCCC1c2cc(F)ccc2CCc2c(F)cccc21 (centres unmarked) [Compound 194]

- pIC50 [1]: 7.54
SMILES: NCCC1c2cc(F)ccc2CCc2ccc(F)cc21 [Compound 195]

- pIC50 [1]: 5.65
SMILES: NCCC1c2ccccc2CCc2c(F)cccc21 (centres unmarked) [Compound 196]

- pIC50 [1]: 7.28
- inhibition at 0.1 µM [2]: 9.8%
- inhibition at 10 µM [2]: 58.1%
- inhibition at 0.1 µM ([3]; @ 100 nM (top number), Table I): 0%
- inhibition at 10 µM [3, 5]: 27.5%
- inhibition at 0.1 µM ([4]; @ 100 nM (top number), Table I): 0%
- inhibition at 10 µM [4, 5]: 83.5%
SMILES: NCCC1c2ccccc2CCc2ccc(F)cc21 (centres unmarked) [Compound 197]

SMILES: Fc1ccc([C@@H]2CCNC[C@H]2COc2ccc3c(c2)OCO3)cc1 [Paroxetine, reference compound]
- inhibition at 0.1 µM [4]: < 20%
